Experimental data reported in ChEMBL document CHEMBL1143350, “Structure and activity of (2,8)-dicarba-(3,12)-cystino alpha-ImI, an alpha-conotoxin containing a nonreducible cystine analogue” (J Med Chem, 2009).
The source made the active and inactive calls. The rule behind the calls is not given here.

Experiments:
[1] = molecular target: Neuronal acetylcholine receptor subunit alpha-7 (Rattus norvegicus) (UniProt Q05941); assay: Antagonist activity at rat alpha7 nAChR expressed in Xenopus laevis oocytes assessed as inhibition of acetylcholine-evoked ion current at 2.5 uM treated 3 mins prior to acetylcholine challenge measured after 2 to 4 days by two-electrode voltage clamp method; format: functional, cell-based; set-up: scale not given: the % may be the effect or the level left; conditions: Oocyte
Neuronal acetylcholine receptor subunit alpha-7 (Rattus norvegicus), sequence (Q05941 whole entry): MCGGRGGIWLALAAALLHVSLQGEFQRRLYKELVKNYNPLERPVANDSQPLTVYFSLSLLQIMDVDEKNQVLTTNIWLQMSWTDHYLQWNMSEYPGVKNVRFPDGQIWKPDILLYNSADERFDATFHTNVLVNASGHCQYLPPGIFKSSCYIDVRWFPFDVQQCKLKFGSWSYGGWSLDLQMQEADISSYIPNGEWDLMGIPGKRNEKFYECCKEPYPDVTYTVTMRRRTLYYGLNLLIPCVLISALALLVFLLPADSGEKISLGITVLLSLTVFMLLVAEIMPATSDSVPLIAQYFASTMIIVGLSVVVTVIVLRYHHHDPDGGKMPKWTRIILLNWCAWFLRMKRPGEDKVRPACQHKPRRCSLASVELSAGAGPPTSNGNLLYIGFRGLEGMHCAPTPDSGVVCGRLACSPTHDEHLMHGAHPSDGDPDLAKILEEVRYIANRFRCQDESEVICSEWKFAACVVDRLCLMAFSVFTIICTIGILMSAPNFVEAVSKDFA

[2] = (§1) Antagonist activity at nAChR in nicotine-stimulated bovine adrenal chromaffin cells assessed as inhibition of noradrenaline release preincubated for 5 mins before nicotine challenge by RP-HPLC; format: functional; conditions: Bos taurus
Bos taurus [3] = organism: Bos taurus; assay: as §1; format: functional
[4] = molecular target: Neuronal acetylcholine receptor subunit alpha-7 (Rattus norvegicus) (UniProt Q05941); assay: Activation of rat alpha7 nAChR expressed in Xenopus laevis oocytes at 2.5 uM; format: cell-based; conditions: Oocyte
[5] = (§2) Antagonist activity at nAChR in nicotine-stimulated bovine adrenal chromaffin cells assessed as inhibition of adrenaline release preincubated for 5 mins before nicotine challenge by RP-HPLC; format: functional; conditions: Bos taurus
Bos taurus [6] = organism: Bos taurus; assay: as §2; format: functional

Row | Structure (SMILES) | Activity [1] | IC50 [2] [µM] | Activity (Bos taurus [3]) | Activity [4] | IC50 [5] [µM] | Activity (Bos taurus [6])
1 | C[C@H](NC(=O)[C@H](CS)NC(=O)[C@H](CCCNC(=N)N)NC(=O)[C@@H]1CCCN1C(=O)[C@H](CC(=O)O)NC(=O)[C@H](CO)NC(=O)[C@H](CS)NC(=O)[C@H](CS)NC(=O)CN)C(=O)N[C@@H](Cc1c[nH]c2ccccc12)C(=O)N[C@@H](CCCNC(=N)N)C(=O)N[C@@H](CS)C(N)=O | 68% | 0.87 | Dose-dependent effect | inactive | 1.12 | Dose-dependent effect
2 | C=CN(CC(=O)NC1C/C=C/CC2NC(=O)[C@H](CCCNC(=N)N)NC(=O)[C@@H]3CCCN3C(=O)[C@H](CC(=O)O)NC(=O)[C@H](CO)NC(=O)[C@H](CSSC[C@@H](C(=O)O)NC(=O)[C@H](CCCNC(=N)N)NC(=O)[C@H](Cc3c[nH]c4ccccc34)NC(=O)[C@H](C)NC2=O)NC1=O)C(=O)CN (single isomer, unassigned) | inactive | 20 | Dose-dependent effect |  | 15 | Dose-dependent effect
3 | C=CN(CC(=O)NC1C/C=C\CC2NC(=O)[C@H](CCCNC(=N)N)NC(=O)[C@@H]3CCCN3C(=O)[C@H](CC(=O)O)NC(=O)[C@H](CO)NC(=O)[C@H](CSSC[C@@H](C(=O)O)NC(=O)[C@H](CCCNC(=N)N)NC(=O)[C@H](Cc3c[nH]c4ccccc34)NC(=O)[C@H](C)NC2=O)NC1=O)C(=O)CN (single isomer, unassigned; isomer I) | 60% | 17 | Dose-dependent effect | inactive | 10 | Dose-dependent effect
